What was measured:
rat orexin-1 receptor = rat orexin-1 receptor (Rattus norvegicus, UniProt P56718); experiment: FLIPR Ca2+ Flux Assay, CHO cells expressing rat orexin-1 receptor; type: cell-based; conditions: agonist 70 pM Ala-6,12 human orexin-A, text says rat orexin-1 receptor, read-out: hOX1R FLIPR IC50
Procedure: (§1) The utility of the compounds in accordance with the present invention as orexin receptor OX1R and/or OX2R antagonists may be readily determined without undue experimentation by methodology well known in the art, including the “FLIPR Ca^2+ Flux Assay” (Okumura et al., Biochem. Biophys. Res. Comm. 280:976-981, 2001). In a typical experiment the OX1 and OX2 receptor antagonistic activity of the compounds of the present invention was determined in accordance with the following experimental method. For intracellular calcium measurements, Chinese hamster ovary (CHO) cells expressing the rat orexin-1 receptor or the human orexin-2 receptor, are grown in Iscove's modified DMEM containing 2 mM L-glutamine, […], 1% hypoxanthine-thymidine supplement, 100 U/ml penicillin, 100 μg/ml streptomycin and 10% heat-inactivated fetal calf serum (FCS). The cells are seeded at 20,000 cells/well into Becton-Dickinson black 384-well clear bottom sterile plates coated with poly-D-lysine. All reagents were from GIBCO-Invitrogen Corp. The seeded plates are incubated overnight at […]. and 5% CO2. Ala-6,12 human orexin-A as the agonist is prepared as a 1 mM stock solution in 1% bovine serum albumin (BSA) and diluted in assay buffer (HBSS containing 20 mM HEPES, 0.1% BSA and 2.5 mM probenecid, pH7.4) for use in the assay at a final concentration of 70 pM. Test compounds are prepared as 10 mM stock solution in DMSO, then diluted in 384-well plates, first in DMSO, then assay buffer. On the day of the assay, cells are washed 3 times with 100 μl assay buffer and then incubated for 60 min (37° C., 5% CO2) in 60 μl assay buffer containing 1 μM Fluo-4AM ester, 0.02% pluronic acid, and 1% BSA. The dye loading solution is then aspirated and cells are washed 3 times with 100 μl assay buffer. 30 μl of that same buffer is left in each well. Within the Fluorescent Imaging Plate Reader (FLIPR, Molecular Devices), test compounds are added to the plate in a volume of 25 μl, incubated for 5 min and finally 25 μl of agonist is added. Fluorescence is measured for each well at 1 second intervals for 5 minutes and the height of each fluorescence peak is compared to the height of the fluorescence peak induced by 70 pM Ala-6,12 orexin-A with buffer in place of antagonist. For each antagonist, IC50 value (the concentration of compound needed to inhibit 50% of the agonist response) is determined. Alternatively, compound potency can be assessed by a radioligand binding assay (described in Bergman et. al. Bioorg. Med. Chem. Lett. 2008, 18, 1425-1430) in which the inhibition constant (Ki) is determined in membranes prepared from CHO cells expressing either the OX1 or OX2 receptor. The intrinsic orexin receptor antagonist activity of a compound which may be used in the present invention may be determined by these assays.

human orexin-2 receptor = human orexin-2 receptor (Homo sapiens (Human), UniProt O43614); experiment: FLIPR Ca2+ Flux Assay, CHO cells expressing human orexin-2 receptor; type: cell-based; conditions: agonist 70 pM Ala-6,12 human orexin-A, read-out: hOX2R FLIPR IC50
Sequence of human orexin-2 receptor (O43614 whole entry): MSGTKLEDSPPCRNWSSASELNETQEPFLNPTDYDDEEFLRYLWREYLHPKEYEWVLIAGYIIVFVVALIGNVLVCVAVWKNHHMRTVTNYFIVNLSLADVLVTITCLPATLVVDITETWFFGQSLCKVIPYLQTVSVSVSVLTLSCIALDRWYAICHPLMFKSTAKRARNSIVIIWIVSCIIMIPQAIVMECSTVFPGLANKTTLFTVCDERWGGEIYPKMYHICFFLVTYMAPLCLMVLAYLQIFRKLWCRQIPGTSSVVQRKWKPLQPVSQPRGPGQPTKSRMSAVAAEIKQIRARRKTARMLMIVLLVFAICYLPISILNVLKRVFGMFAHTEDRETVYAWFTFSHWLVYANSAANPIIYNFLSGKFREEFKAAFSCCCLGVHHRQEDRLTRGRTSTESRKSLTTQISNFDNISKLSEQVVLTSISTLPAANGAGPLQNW
Procedure: as §1

Row | SMILES | IC50 (rat orexin-1 receptor) [µM] | IC50 (human orexin-2 receptor) [µM]
1 | C[C@@H]1CC[C@@H](Nc2cc(C#N)ccn2)CN1C(=O)c1ccccc1-n1nccn1 [Example 1, 2-(((3R,6R)-1-(2-(2H-1,2,3-Triazol-2-yl)benzoyl)-6-methylpiperidin-3-yl)amino)isonicotinonitrile] | 1.74 | 0.029
2 | COc1c(C#N)ccnc1N[C@@H]1CC[C@@H](C)N(C(=O)c2ccccc2-n2nccn2)C1 [Example 2, 3-methoxy-2-{[(3R,6R)-6-methyl-1-{[2-(2H-1,2,3-triazol-2-yl)phenyl]carbonyl}piperidin-3-yl]amino}pyridine-4-carbonitrile] | 0.267 | 0.011
3 | C[C@@H]1CC[C@@H](Nc2cc(C#N)ccn2)CN1C(=O)c1ccccc1-n1ncnn1 [Example 3, 2-(((3R,6R)-1-(2-(2H-Tetrazol-2-yl)benzoyl)-6-methylpiperidin-3-yl)amino)isonicotinonitrile] | 1.92 | 0.009
4 | Cc1c(C#N)ccnc1N[C@@H]1CC[C@@H](C)N(C(=O)c2ccccc2-n2nccn2)C1 [Example 4, 2-(((3R,6R)-1-(2-(2H-1,2,3-Triazol-2-yl)benzoyl)-6-methylpiperidin-3-yl)amino)-3-methylisonicotinonitrile] | 0.745 | 0.007
5 | Cc1c(C#N)ccnc1N[C@@H]1CC[C@@H](C)N(C(=O)c2ccccc2-n2ncnn2)C1 [Example 5, 3-methyl-2-{[(3R,6R)-6-methyl-1-{[2-(2H-tetrazol-2-yl)phenyl]-carbonyl}-piperidin-3-yl]amino}pyridine-4-carbonitrile] | 1.15 | 0.007
6 | COc1c(C#N)ccnc1N[C@@H]1CC[C@@H](C)N(C(=O)c2ccsc2-n2nccn2)C1 [Example 6, 2-((3R,6R)-1-(2-(2H-1,2,3-Triazol-2-yl)thiophene-3-carbonyl)-6-methylpiperidin-3-ylamino)-3-methoxyisonicotinonitrile] | 0.827 | 0.011
7 | COc1c(C#N)ccnc1N[C@@H]1CC[C@@H](C)N(C(=O)c2ccsc2-c2ncccn2)C1 [Example 7, 3-methoxy-2-((3R,6R)-6-methyl-1-(2-(pyrimidin-2-yl)thiophene-3-carbonyl)piperidin-3-ylamino)isonicotinonitrile] | 0.384 | 0.047
8 | C[C@@H]1CC[C@@H](N(C)c2cc(C#N)ccn2)CN1C(=O)c1ccccc1-n1nccn1 [Example 8, 2-(((3R,6R)-1-(2-(2H-1,2,3-Triazol-2-yl)benzoyl)-6-methylpiperidin-3-yl)(methyl)amino)isonicotinonitrile] | 2.05 | 0.02
9 | C[C@@H]1CC[C@@H](N(C)c2cc(C#N)ccn2)CN1C(=O)c1ccccc1-n1ncnn1 [Example 9, 2-{methyl[(3R,6R)-6-methyl-1-{[2-(2H-tetrazol-2-yl)phenyl]-carbonyl}piperidin-3-yl]amino}pyridine-4-carbonitrile] | 2.24 | 0.032
10 | COc1c(C#N)ccnc1N(C)[C@@H]1CC[C@@H](C)N(C(=O)c2ccsc2-n2nccn2)C1 [Example 10, 3-methoxy-2-{methyl[(3R,6R)-6-methyl-1-{[2-(2H-1,2,3-triazol-2-yl)thiophen-3-yl]carbonyl}piperidin-3-yl]amino}pyridine-4-carbonitrile] | > 10 | 0.039
11 | COc1c(C#N)ccnc1N(C)[C@@H]1CC[C@@H](C)N(C(=O)c2ccsc2-c2ncccn2)C1 [Example 11, 3-methoxy-2-(methyl{(3R,6R)-6-methyl-1-[(2-pyrimidin-2-ylthiophen-3-yl)carbonyl]piperidin-3-yl}amino)pyridine-4-carbonitrile] | > 10 | 0.034
12 | CCN(c1cc(C#N)ccn1)[C@@H]1CC[C@@H](C)N(C(=O)c2ccccc2-n2nccn2)C1 [Example 12, 2-{ethyl[(3R,6R)-6-methyl-1-{[2-(2H-1,2,3-triazol-2-yl)phenyl]carbonyl}piperidin-3-yl]amino}-pyridine-4-carbonitrile] | 1.99 | 0.023
13 | C=CCN(c1cc(C#N)ccn1)[C@@H]1CC[C@@H](C)N(C(=O)c2ccccc2-n2nccn2)C1 [Example 13, 2-{[(3R,6R)-6-methyl-1-{[2-(2H-1,2,3-triazol-2-yl)phenyl]carbonyl}piperidin-3-yl](prop-2-en-1-yl)amino}pyridine-4-carbonitrile] | 2.55 | 0.023
14 | CCCN(c1cc(C#N)ccn1)[C@@H]1CC[C@@H](C)N(C(=O)c2ccccc2-n2nccn2)C1 [Example 14, 2-{[(3R,6R)-6-methyl-1-{[2-(2H-1,2,3-triazol-2-yl)phenyl]carbonyl}piperidin-3-yl](propyl)-amino}pyridine-4-carbonitrile] | 0.33 | 0.013
15 | CC(=O)N(c1cc(C#N)ccn1)[C@@H]1CC[C@@H](C)N(C(=O)c2ccccc2-n2nccn2)C1 [Example 15, N-((3R,6R)-1-(2-(2H-1,2,3-Triazol-2-yl)benzoyl)-6-methylpiperidin-3-yl)-N-(4-cyanopyridin-2-yl)acetamide] | > 10 | 
